Data as given in patent US20120225862A1, “HETEROARYL BENZAMIDES, COMPOSITIONS AND METHODS OF USE” (AUCKLAND UNIVSERVICES LIMITED, priority 2009, published 2012).

Key:
FGFR1 = target: T1, FGFR1 (Homo sapiens, UniProt P11362); experiment: In vitro kinase activity (Millipore KinaseProfiler): FGFR1; format: biochemical; conditions: no head or unit printed
T1 construct: purchased Millipore (KinaseProfiler service)
Procedure: (§1) All cells were grown in DMEM+10% FCS. ACHN and ACHN shVHL were a kind gift from George V. Thomas (UCLA). HIF overexpressing clones were described previously. Transfection of RNA oligos were performed with DnarmaFECT Reagent 1 (Dharmcon), according to manufacturer's directions. ON-TARGETplus SMART pools against HIF-1β/ARNT were purchased from Dharmacon. Glut1 was detected with anti-GLUT1 antibody from NeoMarkers/LabVision/Fisher. Pyruvate/lactate levels and hexokinase activity were both measured by fluorometric assay (BioVision and Sigma-Aldrich, respectively). ATP levels were measured by bioluminescence assay (ATP Determination Kit from Molecular Probes/Invitrogen). In vitro kinase activities were performed by Millipore KinaseProfiler. Affi-Gel 10 (BioRad) activated affinity media was coupled to analogs to generate immobilized affinity linkers.
(§2) We next wanted to investigate the differential glucose uptake between RCCs with and without VHL treated with compound 47 that subsequently lead to the selective death of VHL-deficient cells. We first examined the message levels of the two main glucose transporters, GLUT1 and GLUT2 by quantitative real-time PCR. GLUT1 is an inducible, high-affinity glucose transporter, while GLUT2 is the glucose transporter responsible for basal glucose uptake. […] Cells deficient in VHL had very low levels of GLUT2 that could barely be detected (FIG. 3J). […]

RCC4 = experiment: Necrotic cell death by trypan blue, RCC4; format: cell-based, human; conditions: 3 days, 5 μM, FIG. 2F
Procedure: For 2,3-bis[2-methoxy-4-nitro-5-sulfophenyl]-2H-tetrazolium-5-carboxanilide (XTT) assays, five thousand cells were plated in 96-well plates. The next day, vehicle (DMSO) or drug was added by serial dilution. Four days later, media were aspirated, XTT solution (0.3 mg/ml of XTT (Sigma), 2.65 mg/ml N-methyl dibenxopyrazine methyl sulfate (Simga) in phenol red-free media) was added, and the plates were incubated at 37° C. for 1-2 hours. Metabolism of XTT was quantified by measuring the absorbance at 450 nm. IC50s were calculated using linear interpolation. For clonogenic survival assays, three hundred cells were plated per 60 mm tissue culture dish. The cells were allowed to attach overnight and then treated with vehicle or drug for 14 days. Colonies were fixed and stained with crystal violet (0.1% crystal violet in 95% ethanol). All conditions were measured in triplicate and each experiment was done in duplicate or triplicate. To determine necrosis, cells were treated with drug for a given time point. Media and cells were collected, centrifugated, and resuspended in 0.4% trypan blue (Invitrogen). Live and dead cells were counted on a hematocytometer.

RCC4/VHL [1] = experiment: 3H-2-deoxyglucose uptake, RCC4/VHL; format: cell-based, human; conditions: 5 μM
Procedure: One hundred thousand cells were plated into 6-well plates. The following day, the cells were treated with vehicle or drug and incubated for the indicated time. Cells were washed twice in phosphate buffered saline and low glucose media was added for 30 minutes. Cells were then incubated with 0.5 microCi of tritiated-2-deoxyglucose and incubated for an hour at 37° C. Cells were washed twice in PBS and then lysed in 0.2 N NaOH and 0.2% SDS. Lysates were transferred to scintillation tubes with scintillation fluid and quantified by scintillation counter.
One hundred thousand cells were plated per well in a six-well plate. The next day, cells were treated with the indicated concentration of drug and incubated for the indicated time. Cells were then washed twice with phosphate-buffered saline, incubated in low-glucose medium for 30 minutes, and ^3H-2-deoxyglucose (0.5 μCi) was added in 1 ml of glucose-free media for an additional hour. Cells were washed twice in PBS and lysed (0.2 N NaOH and 0.2% sodium dodecyl sulfate). Glucose uptake was quantified with a scintillation counter.

cKit(D816H) = target: T2, cKit(D816H) (Homo sapiens, UniProt P10721, D816H); experiment: In vitro kinase activity (Millipore KinaseProfiler): cKit(D816H); format: biochemical; conditions: no head or unit printed
T2 construct: purchased Millipore (KinaseProfiler service)
T2 sequence (P10721 26-976 D816H): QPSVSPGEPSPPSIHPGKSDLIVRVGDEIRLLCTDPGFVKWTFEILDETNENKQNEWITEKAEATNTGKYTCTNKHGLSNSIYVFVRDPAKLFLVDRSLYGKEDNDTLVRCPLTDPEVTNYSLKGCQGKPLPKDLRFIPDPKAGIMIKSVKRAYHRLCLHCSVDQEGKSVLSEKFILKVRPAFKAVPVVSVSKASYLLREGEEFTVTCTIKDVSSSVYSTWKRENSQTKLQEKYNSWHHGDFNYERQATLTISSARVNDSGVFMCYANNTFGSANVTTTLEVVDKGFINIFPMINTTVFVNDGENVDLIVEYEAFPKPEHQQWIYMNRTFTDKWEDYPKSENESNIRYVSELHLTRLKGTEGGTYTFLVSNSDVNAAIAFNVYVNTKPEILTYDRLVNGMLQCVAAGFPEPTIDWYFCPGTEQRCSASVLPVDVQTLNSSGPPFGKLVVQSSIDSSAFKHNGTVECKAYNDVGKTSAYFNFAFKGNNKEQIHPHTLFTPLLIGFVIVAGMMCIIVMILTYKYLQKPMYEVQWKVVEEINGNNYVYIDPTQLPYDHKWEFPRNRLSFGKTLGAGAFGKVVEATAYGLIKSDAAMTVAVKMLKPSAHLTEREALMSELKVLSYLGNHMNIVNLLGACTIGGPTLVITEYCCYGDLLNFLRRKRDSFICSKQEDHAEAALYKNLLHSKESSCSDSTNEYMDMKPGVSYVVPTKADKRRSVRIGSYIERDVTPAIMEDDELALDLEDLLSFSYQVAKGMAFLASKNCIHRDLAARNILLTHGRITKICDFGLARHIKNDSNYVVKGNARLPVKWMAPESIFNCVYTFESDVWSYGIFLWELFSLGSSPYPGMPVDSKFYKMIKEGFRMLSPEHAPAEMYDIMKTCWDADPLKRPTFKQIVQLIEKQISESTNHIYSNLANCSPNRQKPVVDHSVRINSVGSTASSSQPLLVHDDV
Procedure: as §1, §2

Aurora-A = target: T3, Aurora-A (Homo sapiens, UniProt O14965); experiment: In vitro kinase activity (Millipore KinaseProfiler): Aurora-A; format: biochemical; conditions: no head or unit printed
T3 construct: purchased Millipore (KinaseProfiler service)
T3 sequence (O14965 whole entry): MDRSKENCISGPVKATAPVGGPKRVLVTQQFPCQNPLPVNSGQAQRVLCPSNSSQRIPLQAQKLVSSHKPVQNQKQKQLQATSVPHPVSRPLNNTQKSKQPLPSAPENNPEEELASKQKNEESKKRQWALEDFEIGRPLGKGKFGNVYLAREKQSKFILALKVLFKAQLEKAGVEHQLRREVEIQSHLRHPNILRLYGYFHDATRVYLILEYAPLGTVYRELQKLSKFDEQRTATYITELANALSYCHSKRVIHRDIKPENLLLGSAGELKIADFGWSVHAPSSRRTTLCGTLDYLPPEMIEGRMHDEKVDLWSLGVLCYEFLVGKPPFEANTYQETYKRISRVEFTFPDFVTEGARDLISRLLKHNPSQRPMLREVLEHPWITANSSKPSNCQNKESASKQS
Procedure: as §1, §2

CSK = target: T4, CSK (Homo sapiens, UniProt P41240); experiment: In vitro kinase activity (Millipore KinaseProfiler): CSK; format: biochemical; conditions: no head or unit printed
T4 construct: purchased Millipore (KinaseProfiler service)
T4 sequence (P41240 whole entry, species assumed): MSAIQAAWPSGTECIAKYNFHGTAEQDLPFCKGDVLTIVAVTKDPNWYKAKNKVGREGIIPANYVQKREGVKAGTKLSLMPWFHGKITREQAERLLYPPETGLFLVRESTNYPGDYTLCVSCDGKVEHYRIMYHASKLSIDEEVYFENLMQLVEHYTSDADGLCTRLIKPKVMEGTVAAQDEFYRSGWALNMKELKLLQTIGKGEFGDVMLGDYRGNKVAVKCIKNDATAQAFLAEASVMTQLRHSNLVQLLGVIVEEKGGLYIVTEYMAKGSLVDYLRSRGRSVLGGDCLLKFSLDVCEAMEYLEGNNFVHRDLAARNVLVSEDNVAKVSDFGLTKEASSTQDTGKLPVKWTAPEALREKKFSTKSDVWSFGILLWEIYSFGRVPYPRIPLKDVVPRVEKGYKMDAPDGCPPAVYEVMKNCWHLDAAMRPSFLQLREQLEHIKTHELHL
Procedure: as §1, §2

MEK1 = target: T5, MEK1 (Homo sapiens, UniProt Q02750); experiment: In vitro kinase activity (Millipore KinaseProfiler): MEK1; format: biochemical; conditions: no head or unit printed
T5 construct: purchased Millipore (KinaseProfiler service)
T5 sequence (Q02750 whole entry, species assumed): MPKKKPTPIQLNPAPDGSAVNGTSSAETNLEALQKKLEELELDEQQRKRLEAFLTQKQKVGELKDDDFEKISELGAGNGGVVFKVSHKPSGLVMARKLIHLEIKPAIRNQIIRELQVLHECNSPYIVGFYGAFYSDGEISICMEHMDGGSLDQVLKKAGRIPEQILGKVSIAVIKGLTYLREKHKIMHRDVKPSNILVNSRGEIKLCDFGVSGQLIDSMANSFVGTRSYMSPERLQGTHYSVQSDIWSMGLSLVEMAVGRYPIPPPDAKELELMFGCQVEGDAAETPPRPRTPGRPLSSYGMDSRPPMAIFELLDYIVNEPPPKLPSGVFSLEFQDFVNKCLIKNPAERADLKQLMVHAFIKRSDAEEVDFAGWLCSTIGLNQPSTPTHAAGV
Procedure: as §1, §2

PDK1 = target: T6, PDK1 (Homo sapiens, UniProt O15530); experiment: In vitro kinase activity (Millipore KinaseProfiler): PDK1; format: biochemical; conditions: no head or unit printed
T6 construct: purchased Millipore (KinaseProfiler service)
T6 sequence (O15530 whole entry): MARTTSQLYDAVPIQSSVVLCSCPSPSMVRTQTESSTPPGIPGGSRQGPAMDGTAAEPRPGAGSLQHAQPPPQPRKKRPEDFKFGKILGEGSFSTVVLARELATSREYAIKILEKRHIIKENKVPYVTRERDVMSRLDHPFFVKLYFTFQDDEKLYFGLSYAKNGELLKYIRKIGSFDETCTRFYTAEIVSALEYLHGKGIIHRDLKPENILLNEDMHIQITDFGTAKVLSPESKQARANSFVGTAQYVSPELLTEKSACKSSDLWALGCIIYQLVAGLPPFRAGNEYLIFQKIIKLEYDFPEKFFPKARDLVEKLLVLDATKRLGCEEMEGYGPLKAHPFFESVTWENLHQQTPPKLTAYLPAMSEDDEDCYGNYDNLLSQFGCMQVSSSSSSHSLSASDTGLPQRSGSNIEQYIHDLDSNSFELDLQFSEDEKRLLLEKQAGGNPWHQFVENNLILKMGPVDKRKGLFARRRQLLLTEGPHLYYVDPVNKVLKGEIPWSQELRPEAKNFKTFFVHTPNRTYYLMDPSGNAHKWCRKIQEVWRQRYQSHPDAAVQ
Procedure: as §1, §2

RCC4/VHL [2] = experiment: Lactate production (glycolysis), RCC4/VHL; format: cell-based, human; conditions: 5 μM
Procedure: as §1
As the central mediator of oxygen homeostasis, HIF plays an important role in the cellular adaptation to low oxygen conditions through the regulation of genes involved in metabolism and energy production. Inactivation of VHL results in an increase in the half-life of HIF protein. […] To examine whether this compound alters the rate of glycolysis in VHL-deficient cells, we measured the intracellular production of lactate, which is rapidly converted from pyruvate, the end-product of glycolysis. […]

Axl = target: T7, Axl (Homo sapiens, UniProt P30530); experiment: In vitro kinase activity (Millipore KinaseProfiler): Axl; format: biochemical; conditions: no head or unit printed
T7 construct: purchased Millipore (KinaseProfiler service)
T7 sequence (P30530 26-894, species assumed): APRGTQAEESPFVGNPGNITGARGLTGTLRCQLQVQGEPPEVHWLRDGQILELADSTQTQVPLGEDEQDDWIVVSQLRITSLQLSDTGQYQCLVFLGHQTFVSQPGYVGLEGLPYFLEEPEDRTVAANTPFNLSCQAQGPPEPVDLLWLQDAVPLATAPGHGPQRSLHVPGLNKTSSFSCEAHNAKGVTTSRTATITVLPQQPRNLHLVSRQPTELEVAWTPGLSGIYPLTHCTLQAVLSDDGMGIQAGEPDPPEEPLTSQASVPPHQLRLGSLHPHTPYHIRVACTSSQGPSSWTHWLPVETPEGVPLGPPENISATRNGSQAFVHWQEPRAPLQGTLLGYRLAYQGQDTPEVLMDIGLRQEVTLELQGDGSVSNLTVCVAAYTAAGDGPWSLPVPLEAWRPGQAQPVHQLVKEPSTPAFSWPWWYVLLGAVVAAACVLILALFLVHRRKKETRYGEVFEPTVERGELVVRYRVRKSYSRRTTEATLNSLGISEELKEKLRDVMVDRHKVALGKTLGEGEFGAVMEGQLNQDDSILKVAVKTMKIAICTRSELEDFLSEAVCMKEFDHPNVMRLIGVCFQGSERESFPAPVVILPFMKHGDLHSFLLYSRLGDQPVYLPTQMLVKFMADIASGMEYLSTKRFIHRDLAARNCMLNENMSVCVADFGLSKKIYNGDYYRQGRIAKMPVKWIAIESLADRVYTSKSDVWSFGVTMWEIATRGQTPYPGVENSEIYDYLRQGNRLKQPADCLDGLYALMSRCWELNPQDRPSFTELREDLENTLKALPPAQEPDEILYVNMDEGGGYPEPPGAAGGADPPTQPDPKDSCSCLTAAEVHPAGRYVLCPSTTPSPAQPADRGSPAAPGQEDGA
Procedure: as §1, §2

Fyn = target: T8, Fyn (Homo sapiens, UniProt P06241); experiment: In vitro kinase activity (Millipore KinaseProfiler): Fyn; format: biochemical; conditions: no head or unit printed
T8 construct: purchased Millipore (KinaseProfiler service)
T8 sequence (P06241 whole entry, species assumed): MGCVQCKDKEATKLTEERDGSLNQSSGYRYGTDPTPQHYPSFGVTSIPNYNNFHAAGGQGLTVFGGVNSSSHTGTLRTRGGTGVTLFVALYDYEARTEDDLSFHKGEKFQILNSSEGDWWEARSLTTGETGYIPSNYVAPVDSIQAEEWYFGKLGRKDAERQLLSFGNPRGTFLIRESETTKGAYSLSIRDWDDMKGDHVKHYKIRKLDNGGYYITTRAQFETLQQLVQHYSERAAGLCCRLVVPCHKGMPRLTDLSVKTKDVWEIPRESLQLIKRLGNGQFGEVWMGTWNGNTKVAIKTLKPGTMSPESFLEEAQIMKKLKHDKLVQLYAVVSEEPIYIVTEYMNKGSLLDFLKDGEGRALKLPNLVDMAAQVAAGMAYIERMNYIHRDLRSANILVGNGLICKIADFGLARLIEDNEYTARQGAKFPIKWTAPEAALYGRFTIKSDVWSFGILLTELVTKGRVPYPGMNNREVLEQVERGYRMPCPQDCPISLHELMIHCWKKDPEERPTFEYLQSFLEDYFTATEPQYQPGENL
Procedure: as §1, §2

T1 sequence (P11362 22-822, species assumed): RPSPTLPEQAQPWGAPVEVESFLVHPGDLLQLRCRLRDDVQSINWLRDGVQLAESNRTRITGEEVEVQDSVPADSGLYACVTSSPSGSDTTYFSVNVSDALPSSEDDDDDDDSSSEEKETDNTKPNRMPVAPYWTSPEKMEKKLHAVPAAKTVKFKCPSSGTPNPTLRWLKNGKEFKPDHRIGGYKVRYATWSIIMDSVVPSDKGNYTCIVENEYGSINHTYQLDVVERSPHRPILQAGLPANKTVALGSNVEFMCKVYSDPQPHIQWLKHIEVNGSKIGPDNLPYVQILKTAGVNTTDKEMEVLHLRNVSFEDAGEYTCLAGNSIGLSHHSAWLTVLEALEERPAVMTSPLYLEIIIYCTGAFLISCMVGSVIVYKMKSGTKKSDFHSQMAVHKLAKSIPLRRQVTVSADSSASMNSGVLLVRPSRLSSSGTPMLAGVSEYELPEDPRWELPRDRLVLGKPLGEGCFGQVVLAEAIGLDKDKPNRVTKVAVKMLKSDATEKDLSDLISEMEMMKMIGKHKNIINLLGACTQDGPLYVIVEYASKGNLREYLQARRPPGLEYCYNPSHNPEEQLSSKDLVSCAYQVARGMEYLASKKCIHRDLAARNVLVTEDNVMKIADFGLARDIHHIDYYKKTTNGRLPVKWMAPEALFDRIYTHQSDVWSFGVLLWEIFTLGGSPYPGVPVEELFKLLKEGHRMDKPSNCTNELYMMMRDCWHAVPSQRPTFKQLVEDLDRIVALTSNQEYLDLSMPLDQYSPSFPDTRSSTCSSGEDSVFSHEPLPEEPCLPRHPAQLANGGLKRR

Compound: CC(C)(C)c1ccc(S(=O)(=O)NCc2ccc(C(=O)Nc3cccnc3)cc2)cc1 [Example 38, 4-((4-tert-Butylphenylsulfonamido)methyl)-N-(pyridin-3-yl)benzamide]
- FGFR1 kinase activity (FGFR1): 107%
- RCC4 cells exhibiting necrotic cell death (RCC4): greater than 80%
- glucose uptake in RCC4/VHL cells (RCC4/VHL [1]): unaffected
- cKit(D816H) kinase activity (cKit(D816H)): 99
- Aurora-A kinase activity (Aurora-A): 108%
- CSK kinase activity (CSK): 99
- MEK1 kinase activity (MEK1): 99
- PDK1 kinase activity (PDK1): 105%
- effect on glycolysis (lactate) in cells with wild-type VHL (RCC4/VHL [2]): did not affect glycolysis
- Axl kinase activity (Axl): 87
- Fyn kinase activity (Fyn): 91%
